PubChem BioAssay (NCI)
Values joined by “and” are separate entries in the source; they are usually repeats but may differ in a detail not shown here. Equal values may be shown once.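 Protocol summary: plate cells (96-well), add compound at 5 concentrations, incubate 48 h, interpolate endpoints linearly. GI50: concentration for 50% inhibition of growth. Definition used: TGI = concentration required for complete inhibition of growth.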

Assays:
Assay in all cases: NCI-60 cell line screen, 48 h
LOX IMVI melanoma = test system: LOX IMVI melanoma
KM12 colon = test system: KM12 colon
HL-60(TB) leukemia = test system: HL-60(TB) leukemia
HCT-116 colon = test system: HCT-116 colon
SK-MEL-5 melanoma = test system: SK-MEL-5 melanoma
DU-145 prostate = test system: DU-145 prostate
COLO 205 colon = test system: COLO 205 colon
TK-10 renal = test system: TK-10 renal
SK-MEL-2 melanoma = test system: SK-MEL-2 melanoma
SNB-19 CNS = test system: SNB-19 CNS

SMILES | TGI (LOX IMVI melanoma) | TGI (KM12 colon) | TGI (HL-60(TB) leukemia) | TGI (HCT-116 colon) | TGI (SK-MEL-5 melanoma) | TGI (DU-145 prostate) | TGI (COLO 205 colon) | TGI (TK-10 renal) | TGI (SK-MEL-2 melanoma) | TGI (SNB-19 CNS) | GI50 (LOX IMVI melanoma) | GI50 (KM12 colon) | GI50 (HL-60(TB) leukemia) | GI50 (HCT-116 colon) | GI50 (SK-MEL-5 melanoma) | GI50 (DU-145 prostate) | GI50 (COLO 205 colon) | GI50 (TK-10 renal) | GI50 (SK-MEL-2 melanoma) | GI50 (SNB-19 CNS)
C=C1CC2(OC1=O)c1ccccc1C=Cc1ccccc12 | 4.1 µM | 12.3 µM | 4.86 µM | 5.4 µM | 16.4 µM | 23.6 µM | 5.82 µM | 11.1 µM | 16.5 µM | 29.9 µM |  |  |  |  |  |  |  |  |  | 
O=[N+]([O-])c1cc(Cl)cc2c1nc(NCCO)c1ccccc12 | > 100 µM | 93.7 µM | > 56.2 µM | > 100 µM | 3.96 µM | 15.9 µM | 0.236 µM | > 60.5 µM | 43.8 µM | > 100 µM |  |  |  |  |  |  |  |  |  | 
BrC(Br)(Br)c1cnc2ccccc2n1 | 2.19 µM | 7.7 µM | 4.16 µM | 2.66 µM | 7.54 µM | 7.14 µM | 2.13 µM | 3.02 µM | 7.4 µM | 16.1 µM | 0.425 µM | 2.37 µM | 1.97 µM | 1.1 µM | 2.32 µM | 2.21 µM | 0.735 µM | 1.55 µM | 2.72 µM | 3.33 µM
CC(=O)NCCCCCCNC(C)=O | > 10000 µM | > 10000 µM | 9000 µM | > 10000 µM | > 10000 µM | > 10000 µM | > 10000 µM | > 10000 µM | > 10000 µM | > 10000 µM |  |  |  |  |  |  |  |  |  | 
CCCCN(CCCC)CC(C)(C)C(O)c1ccc(OC)c2ccccc12 (stereo unspecified) | 19.4 µM | 16.5 µM | 15.8 µM | 10.8 µM | 4.95 µM | 52.3 µM | 15.8 µM | 24.3 µM | 17.7 µM | 28.6 µM | 5.53 µM | 3.31 µM | 2.98 µM | 1.08 µM | 2 µM | 10.2 µM | 3.1 µM | 8.02 µM | 5.11 µM | 10.6 µM
CCCC[P+](c1ccccc1)(c1ccccc1)c1ccccc1 | > 100 µM | 66.3 µM | 6.91 µM | > 100 µM | 6.63 µM | > 100 µM | 7.15 µM | > 100 µM | 19.6 µM | > 100 µM | 3.01 µM | 0.944 µM | 0.955 µM | 2.87 µM | 0.534 µM | 4.41 µM | 1.24 µM | 8.29 µM | 3.42 µM | 3.6 µM
CCCCCC(=O)OCC(=O)O[C@@H]1C[C@]2(C(C)C)O[C@@]1(C)[C@@H]1CC[C@@H](C)[C@H]1[C@@H]2OC(=O)/C=C/c1ccccc1 | > 72.6 µM | > 100 µM | > 80.3 µM | > 100 µM | > 77.4 µM | > 72.4 µM | > 95.9 µM | > 93.5 µM | > 81 µM | > 100 µM | > 49.9 µM | > 78.5 µM | > 53.2 µM | 32.2 µM | 42.5 µM | > 48.4 µM | > 61.3 µM | > 51.1 µM | > 58.2 µM | > 75.3 µM
O=C(Nc1cccc2cccnc12)c1ccc(N2C(=O)[C@@H]3[C@H](C2=O)[C@@H]2C=C[C@H]3C2)cc1 | > 100 µM | > 100 µM | 59 µM | > 100 µM | 29.6 µM | > 100 µM | > 100 µM | > 100 µM | 80.1 µM | > 100 µM | 31.8 µM | 30.9 µM | 21 µM | 35.8 µM | 13.4 µM | 29.9 µM | 37.6 µM | 4.13 µM | 27 µM | 41.6 µM
COc1cccc2c1cc([N+](=O)[O-])c1c(C(=O)O)cc3c(c12)OCO3 | > 100 µM | > 87.2 µM | > 100 µM and 51.5 µM | > 80.6 µM | 72.2 µM and > 100 µM | > 82.1 µM and 98.7 µM | 2.8 µM and 2.97 µM | 48.1 µM and > 100 µM | 52.3 µM and > 100 µM | > 100 µM | 26.2 µM | 24.5 µM | 35.1 µM |  | 22.3 µM | 23 µM | 1.12 µM | 8.86 µM | 22.9 µM | 33.4 µM
CCCC(=O)NC(c1ccc2c(c1)OCO2)c1ccc2cccnc2c1O (stereo unspecified) | > 100 µM | > 100 µM | 4.76 µM | 56.1 µM | 3.9 µM | > 100 µM | > 100 µM | > 100 µM | > 100 µM | > 100 µM | 0.808 µM | 2.09 µM | 0.317 µM | 0.387 µM | 1.74 µM | 2 µM | 2.73 µM | 2.97 µM | 4.99 µM | 2.28 µM
O=C1C=CN(C2OC(CO)C(O)C2O)C(=O)C1 (stereo unspecified) | 625 µM and 788 µM | 625 µM and > 2500 µM | 625 µM and > 2500 µM | 625 µM and > 2500 µM | > 2500 µM | > 819 µM | 625 µM and > 2500 µM | > 2500 µM | 625 µM and > 2500 µM | > 2500 µM |  | 22.3 µM and 39.6 µM | 6.25 µM | 2.54 µM | > 625 µM and 325 µM |  | 60.2 µM |  | 115 µM and 1040 µM | > 625 µM and 819 µM
O=C(O)c1ccc(-c2ccc(C(=O)O)cc2I)c(I)c1 | > 100 µM | > 100 µM | > 100 µM | > 100 µM | > 100 µM | > 100 µM | > 100 µM | > 100 µM | > 100 µM | > 100 µM | > 100 µM | > 100 µM | > 100 µM | > 100 µM | > 100 µM | > 100 µM | > 100 µM | > 100 µM | > 100 µM | > 100 µM
COC(=O)[C@@H](Cc1c[nH]c2ccccc12)NC(=O)/C=C/c1ccccc1 | > 100 µM | 33.5 µM | 5.71 µM | > 100 µM | 13.8 µM | > 100 µM | 50.3 µM | > 100 µM | > 100 µM | > 100 µM | 3.73 µM | 4.13 µM | 2.33 µM | 3.36 µM | 3.14 µM | 4.58 µM | 12.4 µM | 17.9 µM | 6.63 µM | 7.31 µM
